Legend:
[1] = early investigations of the crystals (hygroscopicity, stability, formulation properties); type: physicochemical; details: crystals having the XRD pattern of Table 1
[2] = target: cGMP PDE5 (Homo sapiens, UniProt O76074); details: statement in words, as detailed in WO 01/27113; cited from earlier work

In the case of `CCOc1ncc(S(=O)(=O)N2CCN(CC)CC2)cc1-c1nc2c(CC)n(CCOC)nc2c(=O)[nH]1` [Example 1, 1-{6-ethoxy-5-[3-ethyl-6,7-dihydro-2-(2-methoxyethyl)-7-oxo-2H-pyrazolo[4,3-d]pyrimidin-5-yl]-3-pyridylsulfonyl}-4-ethylpiperazine], the formulation properties [1] is reported as “good formulation properties”, the hygroscopicity [1] is reported as “non-hygroscopic” and the stability [1] is reported as “stable”. The “cGMP PDE5 inhibitor potency and selectivity” value [2] was “potent and selective”.
